Assay results published in patent US8729047B2, “Compositions for inhibiting redox-sensitive GTPases” (Board of Regents, The University of Texas System, priority 2010, dated 2014).
Like-named read-outs stand apart in the source and are kept apart here.

Key:
T24 cells = test: Tumor cell apoptosis / viability (MTT); assay type: cell-based, human
Text: (§1) Cell viability was examined employing 3-(4,5-dimethylthiazol-2-yl)-2,5-diphenyl tetrazolium bromide (MTT) (Cabello et al. Int. J. Oncol. 23, 697-704 (2003)).

HT1080 cells = test: Tumor cell apoptosis / viability (MTT); assay type: cell-based, human
Text: as §1

MLC = MLC phosphorylation in A7r5 cells; assay type: cell-based, rat
Method: (§2) FIG. 20. Determination of RhoA activity and MLC phosphorylation. […] Cell lysates in a buffer containing 1% NP-40, 10 mM EDTA, and 20 mM TrisHCl (pH 7.4) were centrifuged (50,000×g, 20 min) to remove solid matter. (A) The soluble cell extract was then used to perform Western blot analyses for RhoA and the MLC. This cell extract also was used for the co-IP-based ESI-MS analysis (FIG. 6). (B) A RhoA activity assay was colorimetrically determined using cell extract; the assay was performed with the RhoA G-LISA Activation Assay Kit (Cat. No. BK124) (Denver, Colo.). To examine the level of phosphorylation of the MLC, cells were cultured with ˜5 μCi of ^32P in 1 mL of phosphate-free DMEM. The collected cell extract was nutated with resin coupled with a macrophage myosin II antibody at 4° C. for 5 h. Resin was collected by centrifugation, and proteins bound to the resin were washed and eluted with a buffer (80° C.) containing […], 5 mM DTT, and 10 mM TrisHCl (pH 6.8). The immunoprecipitates were then analyzed by SDS-PAGE and autoradiographed. The values of RhoA activity and the MLC phosphorylation determined from untreated cells were set at 100%. […] The data represented in the figure represent the mean values of triplicate measurements, and the vertical error bar indicates standard errors.

RhoA = target: T1, RhoA (Rattus norvegicus, UniProt P61589); test: RhoA expression (Western) and RhoA G-LISA activity in A7r5 cells; assay type: cell-based
T1 construct: endogenous in cells; host or cells: A7r5 cells (rat aortic vascular smooth muscle)
Method: as §2

RhoC = RhoC (Homo sapiens, UniProt P08134); test: Guanine nucleotide exchange of [3H]GDP-loaded GTPase with 6-TGDP (FIG. 13A); assay type: binding; set-up: made in house; host or cells: E. coli
Method: FIG. 13. Guanine nucleotide exchange of small GTPases with 6-TGDP. (A) To monitor 6-TGDP-mediated GTPase GDP dissociation, [^3H]GDP-loaded GTPase (1 μM) was incubated with 6-TGDP (0-2000 μM) for 1 h. (B) To monitor GTPase 6-TGDP dissociation by GDP (0-2000 μM) in the presence and absence of dithiothreitol (DTT), 6-TGDP-loaded GTPase (˜1 μM) was treated with .NO2 (˜3 μM) under anaerobic conditions and was incubated with various concentrations of [^3H]GDP (0-2000 μM) in the presence and absence of DTT (10 mM) for 1 h. For all assays, aliquots were withdrawn and spotted onto nitrocellulose filters. The filters were then washed three times with an assay buffer, and radioactivity was determined using a Beckman-Coulter scintillation counter. The resultant radioactivity (dpm) values associated with GTPase-bound [^3H]GDP were converted into the fraction of mol nucleotide per mol total GTPase. The data presented represent mean and standard error values from triplicate measurements. The apparent dissociation constants (appKD values) of GTPase 6-TGDP association ([^3H]GDP dissociation, A); and 6-TGDP dissociation ([3H]GDP association, B) were obtained by fitting the data to a simple dissociation and association, respectively. (A) The ^appKD values of Ras, RhoC, RhoA and Rac1 for 6-TGDP, are, respectively, 2300, 230, 224, and 245 μM [6-TGDP]. (B) The appKD values of RhoC with and without DTT are, respectively, 560, and 1000 μM [[^3H]GDP], whereas the ^appKD values of Ras with and without DTT are 530, and 520 μM [[^3H]GDP], respectively. The standard errors of each ^appKD value are less than 10% of their given values, and regression values associated with the fit were r^2>0.9560.
A kinetic assay method using radiolabeled GDP ([^3H]GDP) was established. The apparent dissociation constants (^appKD 6-TGDP) of Rho GTPases (including RhoA, Cdc42, and Rac1/2/3) and Ras with 6-TGDP were determined (FIG. 13). The results of this preliminary kinetic study provided strong support for the mechanism proposed for the role of 6-TGNP in RhoC inactivation (FIG. 7).
The true dissociation constant (^trueKD 6-TGDP) of Ras, RhoC, RhoA and Rac1 for 6-TGDP was then calculated to be ˜20.7 pM, 212 μM, 208 μM, and 158 μM [6-TGDP] by using a compensation equation, ^trueKD 6-TGDP=^appKD 6-TGDP/(1+[GDP]/^trueKD GDP) (95), in conjunction with the values given [(^appKD 6-TGDP of Ras, RhoC, RhoA, and Rac1=2300, 230, 224, and 245 μM (FIG. 13) and ^trueKD GDP=9 pM, 12 μM, 13 μM and 1.8 μM, respectively. The ^trueKD GDP of Ras, RhoA and Rac1 was determined previously (Lenzen et al. Biochemistry 37, 7420-7430 (1998); Heo et al. Biochemistry 44, 6573-6585 (2005)) and the ^trueKD GDP of RhoC was further determined. Example: ^trueKD 6-TGDP for Ras=2300 μM/(1+1 μM GDP/[…])=[…] [6-TGDP]].

[1] = 6-TG 1 μM every 48 h with DETA/NO or GSNO 10 μM, longer than ~10 days
[2] = 6-TG plus DETA/NO 10 μM, FIG. 20B
[3] = 8-TG 1 μM with NO donor (DETA/NO or GSNO 10 μM), not shown

T1 sequence (P61589 whole entry): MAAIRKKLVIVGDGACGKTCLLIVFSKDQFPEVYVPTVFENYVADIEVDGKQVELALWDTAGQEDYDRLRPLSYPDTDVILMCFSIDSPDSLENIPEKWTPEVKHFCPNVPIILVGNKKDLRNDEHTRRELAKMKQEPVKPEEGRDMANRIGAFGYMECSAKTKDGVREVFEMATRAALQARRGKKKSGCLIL
Sequence of RhoC (P08134 whole entry): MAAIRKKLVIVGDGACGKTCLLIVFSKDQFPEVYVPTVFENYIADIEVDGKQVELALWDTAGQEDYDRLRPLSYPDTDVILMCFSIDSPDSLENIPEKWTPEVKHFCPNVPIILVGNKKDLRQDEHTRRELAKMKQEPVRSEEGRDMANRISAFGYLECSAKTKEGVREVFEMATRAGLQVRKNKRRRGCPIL

Nc1nc2nc[nH]c2c(=S)[nH]1 [6-TG, 6-thioguanine]
viability of 6-TG-resisting cells (T24 cells; [1]): decrease in the viability | apoptosis within a day (T24 cells; 6-TG 1 μM, not shown): most cells underwent apoptosis | initial cells that resisted additional treatment (T24 cells; 6-TG 1 μM, not shown): ~20% | viability of 6-TG-resisting cells (HT1080 cells; [1]): decrease in the viability | apoptosis within a day (HT1080 cells; 6-TG 1 μM, not shown): most cells underwent apoptosis | initial cells that resisted additional treatment (HT1080 cells; 6-TG 1 μM, not shown): ~20% | dephosphorylated form of the MLC (MLC; [2]): synergistically increases | MLC dephosphorylation (MLC; 6-TG, after 3 days, FIG. 20B): large portion of the MLC in A7r5 cells was observed to have been dephosphorylated | RhoA inactivation (RhoA; 6-TG 1 μM, within 3 days, FIG. 20B): significant portion of RhoA was inactivated | fraction of inactive RhoA (RhoA; [2]): synergistically increases the fraction of inactive RhoA | cellular expression levels of RhoA and of the MLC (RhoA; presence or absence of 6-TG, FIG. 20A): not changed

Nc1nc2c(ncn2[C@@H]2O[C@H](COP(=O)(O)OP(=O)(O)O)[C@@H](O)[C@H]2O)c(=S)[nH]1 [6-TGDP, 6-thioguanosine diphosphate]
Kd (RhoC; [3H]GDP-loaded GTPase 1 μM, 6-TGDP 0-2000 μM, 1 h, FIG. 13A, read-out: appKD for 6-TGDP): 230 µM | Kd (RhoC; calculated by compensation equation from appKD 6-TGDP and trueKD GDP, read-out: trueKD 6-TGDP): 212 µM

Nc1nc2[nH]c(S)nc2c(=O)[nH]1 [8-TG, 2-amino-8-mercapto-1H-purin-6(9H)-one]
viability and anchorage-independent growth (T24 cells; [3]): did not affect | viability and anchorage-independent growth (HT1080 cells; [3]): did not affect | screen of 6-TP isomers on MLC phosphorylation (MLC; not shown): dephosphorylates the MLC | screen of 6-TP isomers on RhoA activity (RhoA; not shown): most effectively inhibits RhoA activity

Nc1nc2c(ncn2[C@@H]2O[C@H](COP(=O)(O)OP(=O)(O)O)[C@@H](O)[C@H]2O)c(=O)[nH]1 [GDP]
Kd (RhoC; further determined (Example 2), read-out: trueKD GDP): 12 µM
